Calls of active or inactive are those of the source.
What was measured:
[1] = HEp-2 cell cytotoxicity, dose response, cytotoxicity control for RSV inhibitor project, HTS (AID 2410); assay type: functional; conditions: human respiratory syncytial virus
Insulin-degrading enzyme [2] = biological target: T1, Insulin-degrading enzyme (Homo sapiens, UniProt P14735); assay: activators of recombinant IDE enzyme, dose response, counter-screen for IDE activator project, biochemical, fluorescence polarization (AID 588681)
T1 sequence (P14735 whole entry): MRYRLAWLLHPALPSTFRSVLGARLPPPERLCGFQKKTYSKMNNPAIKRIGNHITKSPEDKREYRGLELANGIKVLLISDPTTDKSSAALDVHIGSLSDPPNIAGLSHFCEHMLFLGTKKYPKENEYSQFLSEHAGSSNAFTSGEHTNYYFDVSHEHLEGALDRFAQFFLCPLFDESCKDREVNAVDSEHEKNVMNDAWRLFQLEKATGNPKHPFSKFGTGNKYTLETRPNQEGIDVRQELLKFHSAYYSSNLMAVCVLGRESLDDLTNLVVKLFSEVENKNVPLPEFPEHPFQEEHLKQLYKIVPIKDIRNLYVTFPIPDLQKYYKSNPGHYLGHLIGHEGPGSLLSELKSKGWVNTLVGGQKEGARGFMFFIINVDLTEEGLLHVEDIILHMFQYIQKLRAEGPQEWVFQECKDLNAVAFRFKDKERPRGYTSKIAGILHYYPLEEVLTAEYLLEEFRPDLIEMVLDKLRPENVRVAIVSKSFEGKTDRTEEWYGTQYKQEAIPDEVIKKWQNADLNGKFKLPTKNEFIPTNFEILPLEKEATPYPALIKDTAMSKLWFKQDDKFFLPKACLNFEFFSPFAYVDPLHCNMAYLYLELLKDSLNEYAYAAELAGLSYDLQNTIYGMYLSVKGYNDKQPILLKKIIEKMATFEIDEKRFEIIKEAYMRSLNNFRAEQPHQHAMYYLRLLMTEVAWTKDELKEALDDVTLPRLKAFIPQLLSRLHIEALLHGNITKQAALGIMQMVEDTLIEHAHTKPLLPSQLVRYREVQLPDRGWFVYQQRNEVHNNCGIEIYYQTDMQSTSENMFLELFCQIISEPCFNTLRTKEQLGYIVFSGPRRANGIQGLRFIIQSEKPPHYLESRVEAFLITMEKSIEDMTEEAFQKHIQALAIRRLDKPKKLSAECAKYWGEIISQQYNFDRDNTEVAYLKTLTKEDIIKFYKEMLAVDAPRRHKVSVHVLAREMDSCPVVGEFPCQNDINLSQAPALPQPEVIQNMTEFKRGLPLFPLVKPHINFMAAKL

Insulin-degrading enzyme [3] = biological target: T1, Insulin-degrading enzyme; assay: activators of endogenous IDE in HEK cells, dose response, cell-based, fluorescence polarization (AID 588439); assay type: functional
HEK293 [4] = assay: HEK cell cytotoxicity by LDH release, dose response, cytotoxicity control for IDE activator project, fluorescence, HEK cells (AID 588440); assay type: functional, cell-based; conditions: Homo sapiens;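 note: cytotoxicity by LDH release measuring loss of membrane integrity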
HEK293 [5] = assay: optical interference in Abeta FP readout, dose response, artefact control for IDE activator project, biochemical, fluorescence polarization (AID 588442); assay type: functional, cell-based; conditions: Homo sapiens
Escherichia coli = assay: microbe, parasite or virus in culture
[6] = biological target: Peroxisome proliferator-activated receptor gamma/Nuclear receptor coactivator 1 (Homo sapiens, UniProt P37231); assay: (§1) TR-FRET dose response biochemical High Throughput Screening assay for agonists of the steroid receptor coactivator 1 (SRC-1) recruitment by the peroxisome proliferator-activated receptor gamma (PPAR gamma): non-selective agonists. [Related pubchem assays (depositor defined):AID1300, AID1808, AID504735, AID631]; assay type: protein assay
[7] = biological target: Peroxisome proliferator-activated receptor gamma/Nuclear receptor coactivator 3 (Homo sapiens, UniProt P37231); assay: as §1, with “3 (SRC-3)” for “1 (SRC-1)”, “assays: 1301 (Confirmation screen.), 1048 (Primary screen.)]” for “assays (depositor defined):AID1300, AID1808, AID504735, AID631]”; assay type: functional
[8] = biological target: Peroxisome proliferator-activated receptor gamma/Nuclear receptor coactivator 2 (Homo sapiens, UniProt P37231); assay: TR-FRET dose response biochemical High Throughput Screening assay for agonists of the steroid receptor coactivator 2 (SRC-2) recruitment by the peroxisome proliferator-activated receptor gamma (PPAR gamma): non-selective agonists. [Related pubchem assays: 1297, 1032 ]; assay type: functional
[9] = cytotoxicity in HEK-293T cells, dose response, cytotoxicity control for BCR NF-kB inhibitor project, luminescence, B-cell screen hits (AID 489021); assay type: functional, cell-based;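 note: HEK-293T cells carrying an NF-kB luciferase reporter; cells exposed to compound for about 14 hours before viability readout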
HEK293 [10] = assay: NOD1 signaling inhibitors, primary screen, cell-based, luminescence, uHTS (AID 1578); assay type: functional; conditions: Homo sapiens
HEK293 [11] = assay: cells; assay type: functional, cell-based; conditions: Homo sapiens
HEK293 [12] = assay: cells; assay type: functional, cell-based; conditions: Homo sapiens; remark: listed apart in the source
HEK293 [13] = assay: NOD2 signaling inhibitors in MDP-stimulated cells, cell-based, uHTS, luminescence (AID 2001); assay type: functional; conditions: Homo sapiens
[14] = biological target: T2, Calpain-2 catalytic subunit (Sus scrofa, UniProt P43367); assay: pig calpain II inhibitor potency, dose response, biochemical, fluorogenic peptide substrate (AID 1420); assay type: functional
T2 sequence (P43367 whole entry): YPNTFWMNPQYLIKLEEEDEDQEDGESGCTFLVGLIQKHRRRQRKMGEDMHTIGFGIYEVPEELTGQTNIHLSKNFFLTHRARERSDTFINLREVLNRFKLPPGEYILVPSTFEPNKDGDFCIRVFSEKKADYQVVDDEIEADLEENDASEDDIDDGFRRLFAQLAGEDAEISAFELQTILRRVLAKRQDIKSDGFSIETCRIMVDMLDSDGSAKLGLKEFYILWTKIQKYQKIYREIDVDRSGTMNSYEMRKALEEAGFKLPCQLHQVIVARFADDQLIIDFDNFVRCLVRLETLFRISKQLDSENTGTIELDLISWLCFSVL

[15] = Shn3 3'UTR reporter inhibitors, dose response, cell-based, Clone20 osteoblasts, firefly luciferase, cherry-picked (AID 624132); assay type: functional;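 note: firefly luciferase luminescence from reporter carrying the Shn3 3'UTR in osteoblasts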
[16] = HepG2 cell cytotoxicity, dose response, cytotoxicity control for Shn3 inhibitor project, CellTiter-Glo, cherry-picked (AID 624134); assay type: functional, cell-based
[17] = control 3'UTR Renilla luciferase suppression, dose response, counter-screen for Shn3 inhibitor project, cell-based, Clone20-Shn3RL, cherry-picked (AID 624133); assay type: functional
Cytochrome P450 2C19 = Cytochrome P450 2C19 (Homo sapiens, UniProt P33261); assay: Cytochrome panel assay with activity outcomes. Panel member name: p450-cyp2c19 Compounds with AC50 equal or less than 10 uM are considered active; assay type: functional; conditions: read-out: AC50
Cytochrome P450 3A4 = Cytochrome P450 3A4 (Homo sapiens, UniProt P08684);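 note: CYP3A4 tested as one member of a cytochrome P450 panel screen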
Chain of Cytochrome P450 3A4 (P08684 whole entry): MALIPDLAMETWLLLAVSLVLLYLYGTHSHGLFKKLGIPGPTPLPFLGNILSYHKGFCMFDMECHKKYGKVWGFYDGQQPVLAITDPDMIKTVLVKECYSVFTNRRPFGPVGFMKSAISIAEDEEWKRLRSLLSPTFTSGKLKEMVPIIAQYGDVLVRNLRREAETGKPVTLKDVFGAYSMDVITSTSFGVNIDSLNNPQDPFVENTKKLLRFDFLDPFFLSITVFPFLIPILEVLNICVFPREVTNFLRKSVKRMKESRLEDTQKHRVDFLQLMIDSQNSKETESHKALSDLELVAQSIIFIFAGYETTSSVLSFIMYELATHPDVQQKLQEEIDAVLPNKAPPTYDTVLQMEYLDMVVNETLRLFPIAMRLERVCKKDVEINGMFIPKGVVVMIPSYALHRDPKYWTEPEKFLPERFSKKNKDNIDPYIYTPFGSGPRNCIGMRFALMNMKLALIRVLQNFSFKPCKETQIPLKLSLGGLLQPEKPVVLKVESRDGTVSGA

Chain of Peroxisome proliferator-activated receptor gamma/Nuclear receptor coactivator 1 (P37231 whole entry): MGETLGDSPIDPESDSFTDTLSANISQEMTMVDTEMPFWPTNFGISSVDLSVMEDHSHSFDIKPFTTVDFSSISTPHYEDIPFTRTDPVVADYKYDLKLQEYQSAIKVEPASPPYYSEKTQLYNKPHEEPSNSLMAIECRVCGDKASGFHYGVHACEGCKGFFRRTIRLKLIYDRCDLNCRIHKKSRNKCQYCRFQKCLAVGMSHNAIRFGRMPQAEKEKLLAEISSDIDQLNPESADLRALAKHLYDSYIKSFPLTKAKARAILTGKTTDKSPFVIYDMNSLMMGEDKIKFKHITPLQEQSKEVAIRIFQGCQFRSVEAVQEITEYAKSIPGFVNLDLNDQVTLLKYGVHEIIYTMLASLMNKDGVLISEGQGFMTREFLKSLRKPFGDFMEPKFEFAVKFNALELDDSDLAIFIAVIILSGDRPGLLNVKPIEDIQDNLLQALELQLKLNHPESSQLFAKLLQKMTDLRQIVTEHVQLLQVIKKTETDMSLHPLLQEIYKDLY
Chain of Peroxisome proliferator-activated receptor gamma/Nuclear receptor coactivator 1 (Q15788 whole entry, further chain): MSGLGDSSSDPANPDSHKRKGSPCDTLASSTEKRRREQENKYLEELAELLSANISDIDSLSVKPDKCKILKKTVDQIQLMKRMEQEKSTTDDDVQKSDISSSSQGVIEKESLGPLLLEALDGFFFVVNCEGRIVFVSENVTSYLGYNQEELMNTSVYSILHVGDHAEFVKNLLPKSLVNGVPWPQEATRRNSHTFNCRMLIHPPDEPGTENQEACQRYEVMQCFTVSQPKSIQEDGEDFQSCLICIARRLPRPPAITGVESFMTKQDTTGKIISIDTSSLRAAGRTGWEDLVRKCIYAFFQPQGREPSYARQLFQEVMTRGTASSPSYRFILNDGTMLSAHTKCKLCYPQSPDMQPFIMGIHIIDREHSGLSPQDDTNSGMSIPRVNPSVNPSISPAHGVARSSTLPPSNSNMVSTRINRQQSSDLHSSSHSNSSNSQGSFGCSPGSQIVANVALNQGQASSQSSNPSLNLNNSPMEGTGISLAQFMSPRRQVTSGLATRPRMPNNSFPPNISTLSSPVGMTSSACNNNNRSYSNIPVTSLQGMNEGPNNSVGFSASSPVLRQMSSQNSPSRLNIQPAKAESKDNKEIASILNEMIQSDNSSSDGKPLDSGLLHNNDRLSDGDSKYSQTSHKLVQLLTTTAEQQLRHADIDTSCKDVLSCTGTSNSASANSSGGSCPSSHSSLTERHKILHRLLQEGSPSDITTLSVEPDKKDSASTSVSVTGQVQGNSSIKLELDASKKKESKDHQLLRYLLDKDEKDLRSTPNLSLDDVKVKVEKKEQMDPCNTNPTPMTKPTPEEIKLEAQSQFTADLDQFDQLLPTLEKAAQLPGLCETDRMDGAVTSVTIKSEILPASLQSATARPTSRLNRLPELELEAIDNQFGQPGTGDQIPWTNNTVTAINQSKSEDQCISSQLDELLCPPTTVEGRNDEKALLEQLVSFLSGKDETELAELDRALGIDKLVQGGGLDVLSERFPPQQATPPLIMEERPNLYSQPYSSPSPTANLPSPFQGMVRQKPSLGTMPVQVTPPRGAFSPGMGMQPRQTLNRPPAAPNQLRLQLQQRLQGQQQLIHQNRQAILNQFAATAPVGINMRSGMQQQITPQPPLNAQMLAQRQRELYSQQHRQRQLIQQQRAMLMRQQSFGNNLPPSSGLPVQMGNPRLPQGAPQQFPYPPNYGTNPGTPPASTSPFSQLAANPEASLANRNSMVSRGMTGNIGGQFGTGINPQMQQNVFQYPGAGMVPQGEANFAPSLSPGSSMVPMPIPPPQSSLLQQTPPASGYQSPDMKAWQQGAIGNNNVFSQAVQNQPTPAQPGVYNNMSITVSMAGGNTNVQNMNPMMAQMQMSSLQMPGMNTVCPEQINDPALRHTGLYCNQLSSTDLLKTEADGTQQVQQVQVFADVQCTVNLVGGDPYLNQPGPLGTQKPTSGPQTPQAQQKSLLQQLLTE
Chain of Peroxisome proliferator-activated receptor gamma/Nuclear receptor coactivator 3 (P37231 whole entry): as the sequence (P37231 whole entry) above
Chain of Peroxisome proliferator-activated receptor gamma/Nuclear receptor coactivator 3 (Q9Y6Q9 whole entry, further chain): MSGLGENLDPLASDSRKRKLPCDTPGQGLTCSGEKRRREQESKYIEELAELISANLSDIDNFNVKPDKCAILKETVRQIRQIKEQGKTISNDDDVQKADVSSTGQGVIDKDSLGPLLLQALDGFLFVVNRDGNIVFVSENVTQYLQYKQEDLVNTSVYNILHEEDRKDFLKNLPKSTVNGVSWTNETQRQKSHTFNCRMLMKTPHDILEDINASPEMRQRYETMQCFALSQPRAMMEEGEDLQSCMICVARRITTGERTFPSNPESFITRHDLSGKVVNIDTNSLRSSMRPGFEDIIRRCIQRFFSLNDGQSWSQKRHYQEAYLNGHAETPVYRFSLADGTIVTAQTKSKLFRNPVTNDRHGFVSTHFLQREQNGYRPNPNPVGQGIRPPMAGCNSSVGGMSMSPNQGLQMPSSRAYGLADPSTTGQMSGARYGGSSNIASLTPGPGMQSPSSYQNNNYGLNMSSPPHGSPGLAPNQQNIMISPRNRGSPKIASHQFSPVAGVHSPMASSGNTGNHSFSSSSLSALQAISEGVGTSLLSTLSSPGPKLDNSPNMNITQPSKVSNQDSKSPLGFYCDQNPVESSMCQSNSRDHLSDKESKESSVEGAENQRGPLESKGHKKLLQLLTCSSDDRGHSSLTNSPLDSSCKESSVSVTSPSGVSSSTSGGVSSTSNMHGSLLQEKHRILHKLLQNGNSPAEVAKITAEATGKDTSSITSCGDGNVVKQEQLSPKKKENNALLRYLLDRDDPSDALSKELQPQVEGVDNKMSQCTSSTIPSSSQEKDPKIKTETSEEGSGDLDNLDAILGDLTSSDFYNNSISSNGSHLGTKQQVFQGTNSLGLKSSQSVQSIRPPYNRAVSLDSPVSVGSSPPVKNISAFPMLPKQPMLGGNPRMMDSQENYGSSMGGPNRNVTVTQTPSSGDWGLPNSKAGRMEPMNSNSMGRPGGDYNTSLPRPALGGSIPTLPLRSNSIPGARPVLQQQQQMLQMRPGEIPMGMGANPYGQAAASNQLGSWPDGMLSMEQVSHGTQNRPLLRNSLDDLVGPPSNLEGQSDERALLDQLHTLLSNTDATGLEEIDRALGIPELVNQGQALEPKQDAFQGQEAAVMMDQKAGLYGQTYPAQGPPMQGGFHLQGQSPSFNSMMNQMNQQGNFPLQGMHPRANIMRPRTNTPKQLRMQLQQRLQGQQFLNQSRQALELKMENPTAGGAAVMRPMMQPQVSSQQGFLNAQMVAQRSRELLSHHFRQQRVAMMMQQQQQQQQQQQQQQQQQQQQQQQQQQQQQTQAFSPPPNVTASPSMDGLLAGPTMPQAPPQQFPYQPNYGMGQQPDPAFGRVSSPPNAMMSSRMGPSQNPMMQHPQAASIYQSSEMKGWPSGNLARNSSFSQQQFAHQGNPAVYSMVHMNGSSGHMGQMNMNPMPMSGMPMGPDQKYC
Chain of Cytochrome P450 2C19 (P33261 whole entry): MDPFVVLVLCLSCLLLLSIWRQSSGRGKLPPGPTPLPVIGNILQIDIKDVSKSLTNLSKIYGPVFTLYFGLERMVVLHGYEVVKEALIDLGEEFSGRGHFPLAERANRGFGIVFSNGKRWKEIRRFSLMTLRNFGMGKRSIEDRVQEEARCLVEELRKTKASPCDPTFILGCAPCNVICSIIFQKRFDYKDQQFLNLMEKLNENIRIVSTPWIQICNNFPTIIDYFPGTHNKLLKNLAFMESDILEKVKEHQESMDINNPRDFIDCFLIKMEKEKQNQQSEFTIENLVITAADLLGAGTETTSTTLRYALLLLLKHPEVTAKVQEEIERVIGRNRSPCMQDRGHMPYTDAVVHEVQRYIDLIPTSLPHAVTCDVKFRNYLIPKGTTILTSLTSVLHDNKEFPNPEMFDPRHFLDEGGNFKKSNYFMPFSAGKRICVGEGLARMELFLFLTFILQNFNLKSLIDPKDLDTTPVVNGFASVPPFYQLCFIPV

Nc1c(C(=O)CSc2nc3ccccc3o2)c(=O)[nH]c(=O)n1C1CC1
CC50 [1]: 26.3 µM (active)
EC50 (Insulin-degrading enzyme [2]): > 54.7 µM (inactive)
EC50 (Insulin-degrading enzyme [3]): > 54.7 µM (inactive)
IC50 (HEK293 [4]): > 89.2 µM (inactive)
EC50 (HEK293 [5]): > 54.7 µM (inactive)

O=C(CN(Cc1ccco1)C(=O)c1ccccc1F)Nc1ccccc1C(F)(F)F
AC50 (Escherichia coli): 103 µM (active)

CCn1c(=O)cc(SCC(=O)N2CCC3(CC2)OCCO3)c2ccccc21
EC50 [6]: > 79.4 µM (inactive)
EC50 [7]: > 79.4 µM (not active)
EC50 [8]: > 79.4 µM (not active)
IC50 [9]: > 80 µM (inactive)

CC(C)Cn1c(N)c(C(=O)COC(=O)CC23CC4CC(CC(C4)C2)C3)c(=O)n(C)c1=O
EC50 (HEK293 [10]): 3.06 µM (active)
IC50 (HEK293 [11]): 2.31 µM (active)
IC50 (HEK293 [12]): 6.35 µM (active)
IC50 (HEK293 [13]): 3.31 µM (active)
IC50 [14]: 5.92 µM (not active)
AC50 [15]: 1.51 µM (active)
AC50 [16]: 1.7 µM (active)
AC50 [17]: 0.435 µM (active)

O=C(CCNC(=O)c1ccc([N+](=O)[O-])cc1)Nc1cccc(S(=O)(=O)N2CCCCCC2)c1
AC50 (Escherichia coli): 57 µM (active)

Cc1cc(NC(=O)CSc2nc3ccsc3c(=O)n2CCCCC(=O)O)no1
AC50 (Cytochrome P450 2C19): 3.98 µM (inconclusive)
AC50 (Cytochrome P450 3A4): inconclusive

CO[C@@]12[C@@H]3N[C@@H]3CN1C1=C(C(=O)C(N)=C(C)C1=O)[C@@H]2COC(N)=O
AC50 (Escherichia coli): 0.496 µM (active)
